# Tests used:
# Assay type in all cases: in vivo
# common lambsquater [1] = assay: Test Example 4: herbicidal effect in foliage treatment; conditions: three weeks after application
# Procedure, shortened: (§1)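 14-day greenhouse-grown plants (25–30° C) sprayed on foliage with diluted EC; dose as g/a; effect graded after 3 weeks.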
# common ragweed [2] = assay: as above; conditions: three weeks after application
# Procedure, shortened: as §1
# Italian ryegrass [3] = assay: as above; conditions: three weeks after application
# Procedure, shortened: as §1
# beadstraw = assay: as above; conditions: three weeks after application
# Procedure, shortened: as §1
# water foxtail [4] = assay: as above; conditions: three weeks after application
# Procedure, shortened: as §1
# velvetleaf [5] = assay: as above; conditions: three weeks after application
# Procedure, shortened: as §1
# common chickweed [6] = assay: as above; conditions: three weeks after application
# Procedure, shortened: as §1
# posumbu knotweed [7] = assay: as above; conditions: three weeks after application
# Procedure, shortened: as §1
# wild oat [8] = assay: as above; conditions: three weeks after application
# Procedure, shortened: as §1
# giant foxtail [9] = assay: as above; conditions: three weeks after application
# Procedure, shortened: as §1
# large crabgrass [10] = assay: as above; conditions: three weeks after application
# Procedure, shortened: as §1
# barnyardgrass [11] = assay: as above; conditions: three weeks after application
# Procedure, shortened: as §1
# redroot pigweed [12] = assay: as above; conditions: three weeks after application
# Procedure, shortened: as §1
# bulrush [13] = assay: Test Example 1: herbicidal effects in preemergence treatment under submerged conditions; conditions: dose 2.52 g/a
# Procedure, shortened: (§2)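 Scoring 0 (<5% mortality) to 5 (≥90%) was done three weeks after preemergence application to the water surface of submerged (4 cm) alluvial soil, doses given as g per are. Weeds were seeded and 2.5-leaf rice transplanted on the treatment day; greenhouse at 25–30 °C.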
# ducksalad [14] = assay: as above; conditions: dose 2.52 g/a
# Procedure, shortened: as §2
# barnyardgrass [15] = assay: as above; conditions: dose 2.52 g/a
# Procedure, shortened: as §2
# bulrush [16] = assay: Test Example 2: herbicidal effects during the vegetation period under submerged conditions; conditions: treatment during the vegetation period under submerged conditions; dose 2.52 g/a
# Procedure, shortened: (§3)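 Barnyardgrass, bulrush and ducksalad were co-sown in alluvial soil flooded to 4 cm and grown in a greenhouse at 25 to 30° C. At the 1- or 2-leaf stage, water-diluted emulsifiable concentrates went onto the water surface at set doses (g/a). Herbicidal effect was scored three weeks later on a graded scale.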
# ducksalad [17] = assay: as above; conditions: treatment during the vegetation period under submerged conditions; dose 2.52 g/a
# Procedure, shortened: as §3
# common lambsquater [18] = assay: Test Example 3: herbicidal effects in soil treatment
# Procedure, shortened: (§4)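 Seeds were sown in sterilized diluvial soil and covered with about 1.5 cm of soil. Compounds, formulated as emulsifiable concentrates and diluted with water, were sprayed evenly over the soil surface at set doses in g/a. Herbicidal effect was scored on a rating scale three weeks later.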
# common ragweed [19] = assay: as above
# Procedure, shortened: as §4
# Italian ryegrass [20] = assay: as above
# Procedure, shortened: as §4
# water foxtail [21] = assay: as above
# Procedure, shortened: as §4
# velvetleaf [22] = assay: as above; conditions: dose 6.3 g/a
# Procedure, shortened: as §4
# common chickweed [23] = assay: as above
# Procedure, shortened: as §4
# posumbu knotweed [24] = assay: as above
# Procedure, shortened: as §4
# wild oat [25] = assay: as above
# Procedure, shortened: as §4
# giant foxtail [26] = assay: as above
# Procedure, shortened: as §4
# large crabgrass [27] = assay: as above
# Procedure, shortened: as §4
# barnyardgrass [28] = assay: as above
# Procedure, shortened: as §4
# redroot pigweed [29] = assay: as above
# Procedure, shortened: as §4
# transplanted rice = assay: Test Example 1: preemergence treatment under submerged conditions, effect on crop; conditions: dose 2.52 g/a
# Procedure, shortened: as §2
# barnyardgrass [30] = assay: Test Example 2: herbicidal effects during the vegetation period under submerged conditions; conditions: treatment during the vegetation period under submerged conditions; dose 2.52 g/a
# Procedure, shortened: as §3
compound,measurement,setting,value
"O=C1CSCCN1Cc1ccccc1NS(=O)(=O)C(F)(F)F [Compound I-17, 4-(2-trifluoromethanesulfonylaminobenzyl)-1,4-thiazinan-3-one]","L: common lambsquater, herbicidal effect",common lambsquater [1]; dose 6.3 g/a,5 (mortality of 90% or above (nearly complete death))
same,"J: common ragweed, herbicidal effect",common ragweed [2]; dose 6.3 g/a,4 (mortality of at least 70% and less than 90%)
same,"H: Italian ryegrass, herbicidal effect",Italian ryegrass [3]; dose 6.3 g/a,3 (mortality of at least 40% and less than 70%)
same,"O: beadstraw, herbicidal effect",beadstraw; dose 6.3 g/a,5 (mortality of 90% or above (nearly complete death))
same,"G: water foxtail, herbicidal effect",water foxtail [4]; dose 6.3 g/a,5 (mortality of 90% or above (nearly complete death))
same,"I: velvetleaf, herbicidal effect",velvetleaf [5]; dose 6.3 g/a,4 (mortality of at least 70% and less than 90%)
same,"N: common chickweed, herbicidal effect",common chickweed [6]; dose 6.3 g/a,4 (mortality of at least 70% and less than 90%)
same,"M: posumbu knotweed, herbicidal effect",posumbu knotweed [7]; dose 6.3 g/a,3 (mortality of at least 40% and less than 70%)
same,"F: wild oat, herbicidal effect",wild oat [8]; dose 6.3 g/a,1 (mortality of at least 5% and less than 20%)
same,"E: giant foxtail, herbicidal effect",giant foxtail [9]; dose 6.3 g/a,3 (mortality of at least 40% and less than 70%)
same,"D: large crabgrass, herbicidal effect",large crabgrass [10]; dose 6.3 g/a,5 (mortality of 90% or above (nearly complete death))
same,"A: barnyardgrass, herbicidal effect",barnyardgrass [11]; dose 6.3 g/a,4 (mortality of at least 70% and less than 90%)
same,"K: redroot pigweed, herbicidal effect",redroot pigweed [12]; dose 6.3 g/a,4 (mortality of at least 70% and less than 90%)
same,"B: bulrush, herbicidal effect (evaluation scale 0-5)",bulrush [13],5 (mortality of 90% or above (nearly complete death))
same,"C: ducksalad, herbicidal effect (evaluation scale 0-5)",ducksalad [14],5 (mortality of 90% or above (nearly complete death))
same,"A: barnyardgrass, herbicidal effect (evaluation scale 0-5)",barnyardgrass [15],4 (mortality of at least 70% and less than 90%)
same,"B: bulrush, herbicidal effect (evaluation scale 0-5)",bulrush [16],5 (mortality of 90% or above (nearly complete death))
same,"C: ducksalad, herbicidal effect (evaluation scale 0-5)",ducksalad [17],4 (mortality of at least 70% and less than 90%)
same,"L: common lambsquater, herbicidal effect (evaluation scale 0-5)",common lambsquater [18]; dose 6.3 g/a,5 (mortality of 90% or above (nearly complete death))
same,"J: common ragweed, herbicidal effect (evaluation scale 0-5)",common ragweed [19]; dose 6.3 g/a,4 (mortality of at least 70% and less than 90%)
same,"H: Italian ryegrass, herbicidal effect (evaluation scale 0-5)",Italian ryegrass [20]; dose 6.3 g/a,3 (mortality of at least 40% and less than 70%)
same,"G: water foxtail, herbicidal effect (evaluation scale 0-5)",water foxtail [21]; dose 6.3 g/a,5 (mortality of 90% or above (nearly complete death))
same,"I: velvetleaf, herbicidal effect (evaluation scale 0-5)",velvetleaf [22],1 (mortality of at least 5% and less than 20%)
same,"N: common chickweed, herbicidal effect (evaluation scale 0-5)",common chickweed [23]; dose 6.3 g/a,5 (mortality of 90% or above (nearly complete death))
same,"M: posumbu knotweed, herbicidal effect (evaluation scale 0-5)",posumbu knotweed [24]; dose 6.3 g/a,2 (mortality of at least 20% and less than 40%)
same,"F: wild oat, herbicidal effect (evaluation scale 0-5)",wild oat [25]; dose 6.3 g/a,0 (mortality of less than 5% (almost ineffective))
same,"E: giant foxtail, herbicidal effect (evaluation scale 0-5)",giant foxtail [26]; dose 6.3 g/a,3 (mortality of at least 40% and less than 70%)
same,"D: large crabgrass, herbicidal effect (evaluation scale 0-5)",large crabgrass [27]; dose 6.3 g/a,5 (mortality of 90% or above (nearly complete death))
same,"A: barnyardgrass, herbicidal effect (evaluation scale 0-5)",barnyardgrass [28]; dose 6.3 g/a,5 (mortality of 90% or above (nearly complete death))
same,"K: redroot pigweed, herbicidal effect (evaluation scale 0-5)",redroot pigweed [29]; dose 6.3 g/a,3 (mortality of at least 40% and less than 70%)
CC(C)(C)COC(=O)N(c1ccccc1CN1COC(C)(C)CC1=O)S(=O)(=O)C(F)(F)F [II-27],"L: common lambsquater, herbicidal effect",common lambsquater [1]; dose 3.2 g/a,3 (mortality of at least 40% and less than 70%)
same,"J: common ragweed, herbicidal effect",common ragweed [2]; dose 3.2 g/a,4 (mortality of at least 70% and less than 90%)
same,"H: Italian ryegrass, herbicidal effect",Italian ryegrass [3]; dose 3.2 g/a,3 (mortality of at least 40% and less than 70%)
same,"O: beadstraw, herbicidal effect",beadstraw; dose 3.2 g/a,4 (mortality of at least 70% and less than 90%)
same,"G: water foxtail, herbicidal effect",water foxtail [4]; dose 3.2 g/a,3 (mortality of at least 40% and less than 70%)
same,"I: velvetleaf, herbicidal effect",velvetleaf [5]; dose 3.2 g/a,5 (mortality of 90% or above (nearly complete death))
same,"N: common chickweed, herbicidal effect",common chickweed [6]; dose 3.2 g/a,3 (mortality of at least 40% and less than 70%)
same,"M: posumbu knotweed, herbicidal effect",posumbu knotweed [7]; dose 3.2 g/a,3 (mortality of at least 40% and less than 70%)
same,"F: wild oat, herbicidal effect",wild oat [8]; dose 3.2 g/a,0 (mortality of less than 5% (almost ineffective))
same,"E: giant foxtail, herbicidal effect",giant foxtail [9]; dose 3.2 g/a,3 (mortality of at least 40% and less than 70%)
same,"D: large crabgrass, herbicidal effect",large crabgrass [10]; dose 3.2 g/a,4 (mortality of at least 70% and less than 90%)
same,"A: barnyardgrass, herbicidal effect",barnyardgrass [11]; dose 3.2 g/a,5 (mortality of 90% or above (nearly complete death))
same,"K: redroot pigweed, herbicidal effect",redroot pigweed [12]; dose 3.2 g/a,0 (mortality of less than 5% (almost ineffective))
same,"B: bulrush, herbicidal effect (evaluation scale 0-5)",bulrush [13],5 (mortality of 90% or above (nearly complete death))
same,"C: ducksalad, herbicidal effect (evaluation scale 0-5)",ducksalad [14],5 (mortality of 90% or above (nearly complete death))
same,"A: barnyardgrass, herbicidal effect (evaluation scale 0-5)",barnyardgrass [15],5 (mortality of 90% or above (nearly complete death))
same,"a: transplanted rice, effect on crop (evaluation scale 0-5)",transplanted rice,0 (mortality of less than 5% (almost ineffective))
same,"B: bulrush, herbicidal effect (evaluation scale 0-5)",bulrush [16],5 (mortality of 90% or above (nearly complete death))
same,"C: ducksalad, herbicidal effect (evaluation scale 0-5)",ducksalad [17],5 (mortality of 90% or above (nearly complete death))
same,"A: barnyardgrass, herbicidal effect (evaluation scale 0-5)",barnyardgrass [30],5 (mortality of 90% or above (nearly complete death))
same,"L: common lambsquater, herbicidal effect (evaluation scale 0-5)",common lambsquater [18]; dose 3.2 g/a,0 (mortality of less than 5% (almost ineffective))
same,"J: common ragweed, herbicidal effect (evaluation scale 0-5)",common ragweed [19]; dose 3.2 g/a,4 (mortality of at least 70% and less than 90%)
same,"H: Italian ryegrass, herbicidal effect (evaluation scale 0-5)",Italian ryegrass [20]; dose 3.2 g/a,3 (mortality of at least 40% and less than 70%)
same,"G: water foxtail, herbicidal effect (evaluation scale 0-5)",water foxtail [21]; dose 3.2 g/a,5 (mortality of 90% or above (nearly complete death))
same,"N: common chickweed, herbicidal effect (evaluation scale 0-5)",common chickweed [23]; dose 3.2 g/a,4 (mortality of at least 70% and less than 90%)
same,"M: posumbu knotweed, herbicidal effect (evaluation scale 0-5)",posumbu knotweed [24]; dose 3.2 g/a,3 (mortality of at least 40% and less than 70%)
same,"F: wild oat, herbicidal effect (evaluation scale 0-5)",wild oat [25]; dose 3.2 g/a,0 (mortality of less than 5% (almost ineffective))
same,"E: giant foxtail, herbicidal effect (evaluation scale 0-5)",giant foxtail [26]; dose 3.2 g/a,4 (mortality of at least 70% and less than 90%)
same,"D: large crabgrass, herbicidal effect (evaluation scale 0-5)",large crabgrass [27]; dose 3.2 g/a,5 (mortality of 90% or above (nearly complete death))
same,"A: barnyardgrass, herbicidal effect (evaluation scale 0-5)",barnyardgrass [28]; dose 3.2 g/a,5 (mortality of 90% or above (nearly complete death))
same,"K: redroot pigweed, herbicidal effect (evaluation scale 0-5)",redroot pigweed [29]; dose 3.2 g/a,0 (mortality of less than 5% (almost ineffective))

# From patent US20120029187A1, “HALOALKYLSULFONANILIDE DERIVATIVE” (Nissan Chemical Industries, Ltd., priority 2009, published 2012)
